From US8962608B2, “Cycloalkylnitrile pyrazole carboxamides as janus kinase inhibitors” (Merck Sharp & Dohme Corp., priority 2011, dated 2015)

Target: JAK1 (recombinant purified GST-tagged catalytic domain) (Homo sapiens (Human), UniProt P23458)
Experiment: biochemical
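Further: biochemical assay with HTRF read-out.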

Chain of JAK1 (recombinant purified GST-tagged catalytic domain) (P23458 875-1153): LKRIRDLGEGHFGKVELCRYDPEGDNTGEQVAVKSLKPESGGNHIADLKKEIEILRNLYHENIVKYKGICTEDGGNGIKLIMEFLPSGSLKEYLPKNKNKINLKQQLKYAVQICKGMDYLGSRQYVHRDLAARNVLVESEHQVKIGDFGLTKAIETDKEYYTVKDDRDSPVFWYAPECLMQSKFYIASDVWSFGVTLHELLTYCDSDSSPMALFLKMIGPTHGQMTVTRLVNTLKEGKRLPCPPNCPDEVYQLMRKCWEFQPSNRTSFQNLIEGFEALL

Compound	IC50
CN([C@H]1CC[C@H](n2cc(C(N)=O)c(Nc3ccc(Cl)cc3)n2)[C@@H](C#N)C1)C(C)(C)C (single isomer, unassigned) [Example 28-6, 1-((1S,2S,4S or 1R,2R,4R)-4-(tert-butyl(methyl)amino)-2-cyanocyclohexyl)-3-((4-chlorophenyl)amino)-1H-pyrazole-4-carboxamide]	0.55 nM
N#C[C@H]1C[C@@H](N2CC(F)C2)CC[C@@H]1n1cc(C(N)=O)c(Nc2ccc(C(F)(F)F)cc2)n1 (single isomer, unassigned) [Example 28-105, 1-[(1S,2S,4S or 1R,2R,4R)-2-cyano-4-(3-fluoroazetidin-1-yl)cyclohexyl]-3-{[4-(trifluoromethyl)phenyl]amino}-1H-pyrazole-4-carboxamide]	3 nM
N#C[C@H]1C[C@@H](N2CCC2)CC[C@@H]1n1cc(C(N)=O)c(Nc2ccc(OC(F)F)cc2)n1 (single isomer, unassigned) [Example 28-103, 1-[(1S,2S,4S or 1R,2R,4R)-4-azetidin-1-yl-2-cyanocyclohexyl]-3-{[4-(difluoromethoxy)phenyl]amino}-1H-pyrazole-4-carboxamide]	6 nM
CN(C)[C@H]1CC[C@H](n2cc(C(N)=O)c(Nc3ccc(Cl)cc3)n2)[C@@H](C#N)C1 (single isomer, unassigned) [Example 28-117, 3-[(4-chlorophenyl)amino]-1-[(1S,2S,4S or 1R,2R,4R)-2-cyano-4-(dimethylamino)cyclohexyl]-1H-pyrazole-4-carboxamide]	0.55 nM
CC(C)(C(=O)O)c1ccc(Nc2nn([C@H]3CC[C@@H](N4CCC4)C[C@@H]3C#N)cc2C(N)=O)cc1 (single isomer, unassigned) [Example 28-80, 2-[4-({1-[(1S,2S,4R or 1R,2R,4S)-4-azetidin-1-yl-2-cyanocyclohexyl]-4-carbamoyl-1H-pyrazol-3-yl}amino)phenyl]-2-methylpropanoic acid]	0.3 nM
CN(CCC(F)(F)F)[C@H]1CC[C@H](n2cc(C(N)=O)c(Nc3ccc(S(=O)(=O)C(F)(F)F)cc3)n2)[C@@H](C#N)C1 (single isomer, unassigned) [Example 28-171, 1-{(1S,2S,4S or 1R,2R,4R)-2-cyano-4-[methyl(3,3,3-tri-fluoropropyl)amino]cyclohexyl}-3-({4-[(trifluoromethyl)sulfonyl]phen-yl}amino)-1H-pyrazole-4-carboxamide]	2 nM
COCC(C)(C)N[C@H]1CCC(n2cc(C(N)=O)c(Nc3ccccc3)n2)[C@@H](C#N)C1 (single isomer, unassigned) [Example 28-231, 1-{(1S,2S,4S or 1R,2R,4R)-2-cyano-4-[(2-methoxy-1,1-dimethylethyl)amino]cyclo-hexyl}-3-(phenylamino)-1H-pyrazole-4-carboxamide]	16 nM
C[C@H]1C[C@H](C)N1[C@H]1CC[C@H](n2cc(C(N)=O)c(Nc3ccc(C(F)(F)F)cc3)n2)[C@@H](C#N)C1 (single isomer, unassigned) [Example 28-21, 1-{(1S,2S,4S or 1R,2R,4R)-2-cyano-4-[(2S,4S or 2R,4R)-2,4-dimethylazetidin-1-yl]cyclohexyl}-3-{[4-(trifluoromethyl)phenyl]amino}-1H-pyrazole-4-carboxamide]	3 nM
CN(C)[C@H]1CCC(n2cc(C(N)=O)c(Nc3ccc(S(=O)(=O)C(F)(F)F)cc3)n2)[C@@H](C#N)C1 (mixture of isomers) [Example 27-8, 1-[(1S,2S,4S and 1R,2R,4R)-2-cyano-4-(dimethylamino)cyclohexyl]-3-({4-[(trifluoromethyl)sulfonyl]phenyl}amino)-1H-pyrazole-4-carboxamide]	0.3 nM
CN(CCC(F)(F)F)[C@@H]1CC[C@H](n2cc(C(N)=O)c(Nc3ccc(S(=O)(=O)C(F)(F)F)cc3)n2)[C@@H](C#N)C1 (single isomer, unassigned) [Example 28-170, 1-{(1S,2S,4R or 1R,2R,4S)-2-cyano-4-[methyl(3,3,3-trifluoropropyl)amino]cyclohexyl}-3-({4-[(trifluoromethyl)sulfonyl]phen-yl]amino)-1H-pyrazole-4-carboxamide]	11 nM
CC1(N[C@@H]2CCC(n3cc(C(N)=O)c(Nc4ccc(Cl)cc4)n3)[C@@H](C#N)C2)CC1 (single isomer, unassigned) [Example 28-206, 3-[(4-chlorophenyl)amino]-1-{(1S,2S,4R or 1R,2R,4S)-2-cyano-4-[(1-methylcyclopropyl)amino]cyclo-hexyl}-1H-pyrazole-4-carboxamide]	12 nM
C[C@](O)(c1ccc(Nc2nn([C@H]3CCCC[C@@H]3C#N)cc2C(N)=O)cn1)C(F)(F)F (single isomer, unassigned) [Example 17-34, 1-[(1S,2S or 1R,2R)-2-cyanocyclohexyl]-3-({6-[(1S or 1R)-2,2,2-trifluoro-1-hydroxy-1-methylethyl]pyridin-3-yl}amino)-1H-pyrazole-4-carboxamide]	2 nM
N#C[C@H]1C[C@@H](N2CC3(CCC3)C2)CC[C@@H]1n1cc(C(N)=O)c(Nc2ccc(C(F)(F)F)cc2)n1 (single isomer, unassigned) [Example 28-17, 1-[(1S,2S,4S or 1R,2R,4R)-4-(2-azaspiro[3.3]hept-2-yl)-2-cyanocyclohexyl]-3-{[4-(trifluoromethyl)phenyl]amino}-1H-pyrazole-4-carboxamide]	2 nM

Now from value to molecule:

IC50	Compound
2 nM	CC(C)NC(=O)O[C@@H]1CCC(n2cc(C(N)=O)c(Nc3ccc(F)cc3)n2)[C@@H](C#N)C1 (mixture of isomers) [Example 34-4, (1R,3S,4S and 1S,3R,4R)-4-{4-carbamoyl-3-[(4-fluorophenyl)amino]-1H-pyrazol-1-yl}-3-cyanocyclohexyl propan-2-ylcarbamate]
5 nM	N#C[C@@H]1C[C@H](C(=O)N2CCC(F)(F)C2)CC[C@H]1n1cc(C(N)=O)c(Nc2ccc(Cl)cc2)n1 (single isomer, unassigned) [Example 35-32, 3-[(4-chlorophenyl)amino]-1-{(1R,2R,4R or 1S,2S,4S)-2-cyano-4-[(3,3-difluoropyrrolidin-1-yl)carbonyl]cyclohexyl}-1H-pyrazole-4-carboxamide]
21 nM	N#C[C@@H]1C[C@H](C(=O)N[C@H](C2CC2)C(F)(F)F)CC[C@H]1n1cc(C(N)=O)c(Nc2ccc(Cl)cc2)n1 (single isomer, unassigned) [Example 35-25, 3-[(4-chlorophenyl)amino]-1-[(1R,2R,4R or 1S,2S,4S)-2-cyano-4-{[(1R)-1-cyclopropyl-2,2,2-trifluoroethyl]carbamoyl}cyclohexyl]-1H-pyrazole-4-carboxamide]
16 nM	CC(C)CN(CC1CC1)[C@H]1CC[C@@H](n2cc(C(N)=O)c(Nc3ccc(C(F)(F)F)cc3)n2)[C@H](C#N)C1 (single isomer, unassigned) [Example 30-9, l-{(1R,2R,4S or 1S,2S,4R)-2-cyano-4-[(cyclopropylmethyl)(2-methylpropyl)amino]cyclo-hexyl}-3-{[4-(trifluoromethyl)phenyl]amino}-1H-pyrazole-4-carboxamide]
2 nM	C[C@]1(O)CC[C@H](n2cc(C(N)=O)c(Nc3ccc(Cl)c(F)c3)n2)[C@@H](C#N)C1 (single isomer, unassigned) [Example 32-17, 3-[(4-chloro-3-fluorophenyl)amino]-1-[(1S,2S,4S or 1R,2R,4R)-2-cyano-4-hydroxy-4-methylcyclohexyl]-1H-pyrazole-4-carboxamide]
